In PubChem BioAssay (NCI):
Values joined by “and” are separate entries in the source; they are usually repeats but may differ in a detail not shown here. Equal values may be shown once.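 In this assay, cells in 96-well plates receive the compound at five concentrations for 48 hours. Endpoints are linearly interpolated between the surrounding concentrations. GI50 is the concentration that inhibits growth by half. TGI: concentration producing complete growth inhibition.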

Test system: MDA-MB-468 breast
Test: inhibition of tumour cell growth, NCI panel, 48 h

SMILES | GI50 | TGI
COc1ccc2nc3ccccc3c(NCc3ccc(C)cc3)c2c1 | 1.81 µM | 3.92 µM
O=c1cc(-c2cccc(OCc3ccccc3)c2)[nH]c2cc3c(cc12)OCO3 | 9.59 µM | > 100 µM
CNC(=O)CN1CCC(Oc2cc3c(Nc4cccc(Cl)c4F)ncnc3cc2OC)CC1 | < 0.01 µM and 0.00403 µM | 
Cc1nc2sc(C(=O)Nc3cccc(Br)c3)c(N)c2cc1C(O)c1ccccc1 (centres undefined) | 0.38 µM | 10.2 µM
Oc1c(I)cc(I)cc1CN(Cc1ccccn1)Cc1ccccn1 | 1.31 µM | 7.28 µM
CCN(CC)CC[n+]1cc2cc(OC)c(OC)cc2c2ccc3cc4c(cc3c21)OCO4 | 0.241 µM | 1.09 µM
COc1ccc(C2CC(=O)c3c(O)c(OC)c(OC)c(OC)c3O2)cc1O (centres undefined) | 1.51 µM | > 100 µM
Oc1c(CN2CCN(c3ccccc3F)CC2)cc(Br)c2cccnc12 | 0.673 µM | 6.84 µM
CC#CC(=O)N1CC[C@@H](n2c(=O)n(-c3ccc(Oc4ccccc4)cc3)c3c(N)ncnc32)C1 | 10.5 µM | 60.2 µM
O=C(O)c1ccccc1Nc1ccc2nnc(-c3ccncc3)n2n1 | 1.96 µM | 4.59 µM
C/C(=C\c1ccn(-c2ccc(N)cc2F)n1)[C@@H]1C[C@@H]2O[C@]2(C)CCC[C@H](C)[C@H](O)[C@@H](C)C(=O)C(C)(C)[C@@H](O)CC(=O)O1 | 0.0263 µM | 0.3 µM
C[C@@H]1OCC2(CCN(c3cnc(Sc4ccnc(N)c4Cl)c(N)n3)CC2)[C@@H]1N | 14.8 µM | > 100 µM
Fc1cccc(-c2[nH]nc3nc(Nc4cccnc4)sc23)c1 | 0.36 µM | 3 µM
Nc1c2ccccc2nc2ccccc12 (tested in a mixture with another compound) | 1.07 µM | 3.21 µM
CN1CCN(CC(=O)N2c3cccc4cccc(c34)N(C(=O)CN3CCN(C)CC3)C2c2cn(-c3ccccc3)nc2-c2cccc([N+](=O)[O-])c2)CC1 | 1.61 µM | 3.06 µM
CCOCCOC[C@H]1CCCN(c2ccnc3sc(C(N)=O)c(N)c23)C1 | 3.44 µM | > 100 µM
COc1cc(C)c(NC(=O)CN(C)C)cc1Nc1nc(Nc2cccc(F)c2C(N)=O)c2cc[nH]c2n1 | 0.263 µM | 1.21 µM
C=C(C)[C@@H]1CC[C@]2(C(N)=O)CC[C@]3(C)[C@H](CC[C@@H]4[C@@]5(C)C/C(=C/c6cccnc6)[C@H](O)C(C)(C)[C@@H]5CC[C@]43C)[C@@H]12 | 4.05 µM | > 100 µM
Clc1ccc2c(NCCNc3nc(N4CCCC4)nc4ccccc34)ccnc2c1 | 1.2 µM | 3.43 µM
C=C1C(=O)O[C@H]2[C@H]1CC/C(COC(=O)NCc1cc(OC)cc(OC)c1)=C\CC[C@@]1(C)O[C@@H]21 | 0.58 µM | 2.33 µM
O=S(=O)(Nc1ccccn1)c1ccc(N=Nc2ccc(O)c3ncccc23)cc1 | 2.23 µM | 8.44 µM
COc1ccc2nc(-c3cc4c([nH]c5ccccc54)c(-c4ccc(F)c(F)c4)n3)[nH]c2c1 | 1.7 µM | 3.92 µM
C=CCSSc1ncnc2c1ncn2C1OC(CO)C(O)C1O (centres undefined) | 0.217 µM | 4.46 µM
COc1cnc2c(c1)C(=O)c1c-2n(CCCNC(C)C)c(=O)c2cc([N+](=O)[O-])ccc12 | 0.0206 µM | 0.0603 µM
Cc1nn(C)c2cc(N(C)c3ccnc(Nc4cccc(S(N)(=O)=O)c4)n3)ccc12 | 4.19 µM | 13.7 µM
